From the supplement of paper PMC10733146

Tests used:
Experiment in all cases: viability relative to DMSO control (fraction); higher = less drug effect (more viable cells)
Conditions in all cases: 48 h
[1] = compound: CCOc1cc(C(=O)N2CCC(N3CCN(C)CC3)CC2)ccc1Nc1ncc2c(n1)N(C1CCCC1)c1ccccc1C(=O)N2C [ERK5-IN-1]
Summary of the method: (§1)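 Cells were incubated for 48 h at 37 °C and 5% CO2 in RPMI-1640 with penicillin/streptomycin, L-glutamine and human serum, at 4 × 10^4 cells per well in 384-well plates with compounds pre-plated at five concentrations, one well each. These were primary mononuclear tumour cells, fresh or cryopreserved, Ficoll-isolated from blood or bone marrow or obtained from processed lymph node. Viability values are CellTiter-Glo luminescence relative to the median of 16 inner DMSO wells.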

[2] = compound: CC(=O)[C@]1(O)Cc2c(O)c3c(c(O)c2[C@@H](O[C@H]2C[C@H](N)[C@H](O)[C@H](C)O2)C1)C(=O)c1ccccc1C3=O [Idarubicin]
Summary of the method: as §1

[3] = compound: CC[C@H](NC(=O)[C@H](C)NC)C(=O)N1C[C@@H](O)C[C@H]1Cc1c(-c2[nH]c3cc(F)ccc3c2C[C@@H]2C[C@H](O)CN2C(=O)[C@H](CC)NC(=O)[C@H](C)NC)[nH]c2cc(F)ccc12 [Birinapant]
Summary of the method: as §1

[4] = compound: CC[C@]1(O)C[C@H]2CN(CCc3c([nH]c4ccccc34)[C@@](C(=O)OC)(c3cc4c(cc3OC)N(C=O)[C@H]3[C@@](O)(C(=O)OC)[C@H](OC(C)=O)[C@]5(CC)C=CCN6CC[C@]43[C@@H]65)C2)C1 [Vincristine]
Summary of the method: as §1

[5] = compound: COC1=CC(c2cc3ccccc3[nH]2)=N/C1=C\c1[nH]c(C)cc1C [Obatoclax mesylate]
Summary of the method: as §1

[6] = compound: O=C(NCC1(c2nc(-c3ccccc3)cs2)CCOCC1)c1cccc(-c2noc(C(F)(F)F)n2)c1 [TMP269]
Summary of the method: as §1

[7] = compound: CC(C)(C)c1cc(NC(=O)Nc2ccc(-c3cn4c(n3)sc3cc(OCCN5CCOCC5)ccc34)cc2)no1 [Quizartinib]
Summary of the method: as §1

[8] = compound: CC(C)(C)OC(=O)Nc1ccc(-c2cc(C(=O)NCCCCCCC(=O)NO)no2)cc1
Summary of the method: as §1

[9] = compound: CC#CC(=O)N1CC[C@@H](n2c(=O)n(-c3ccc(Oc4ccccc4)cc3)c3c(N)ncnc32)C1 [ONO-4059]
Summary of the method: as §1

[10] = compound: Cc1ccc(NC(=O)c2ccc(CN3CCN(C)CC3)cc2)cc1Nc1nccc(-c2cccnc2)n1 [Imatinib]
Summary of the method: as §1

[11] = compound: Nc1nc(Cl)nc2c1ncn2[C@H]1C[C@H](O)[C@@H](CO)O1 [Cladribine]
Summary of the method: as §1

[12] = compound: COc1cc(OC)c(/C=C/S(=O)(=O)Cc2ccc(OC)c(NCC(=O)O)c2)c(OC)c1 [Rigosertib]
Summary of the method: as §1

[13] = compound: Cc1cc(Nc2cc(N3CCN(C)CC3)nc(Sc3ccc(NC(=O)C4CC4)cc3)n2)n[nH]1 [Tozasertib]
Summary of the method: as §1

[14] = compound: CC(C)C[C@H](NC(=O)[C@H](CCc1ccccc1)NC(=O)CN1CCOCC1)C(=O)N[C@@H](Cc1ccccc1)C(=O)N[C@@H](CC(C)C)C(=O)[C@@]1(C)CO1 [Carfilzomib]
Summary of the method: as §1

primary MCL patient cells (S053)
viability ([1]; 0.024 µM): 0.874
viability ([1]; 0.12 µM): 0.868
viability ([1]; 0.6 µM): 0.705
viability ([1]; 3 µM): 0.536
viability ([1]; 15 µM): 0.344
viability ([2]; 0.024 µM): 0.518
viability ([2]; 0.12 µM): 0.298
viability ([2]; 0.6 µM): 0.283
viability ([2]; 3 µM): 0.529
viability ([2]; 15 µM): 0.162
viability ([3]; 0.0008 µM): 0.867
viability ([3]; 0.004 µM): 0.888
viability ([3]; 0.02 µM): 0.826
viability ([3]; 0.1 µM): 0.89
viability ([3]; 0.5 µM): 0.934
viability ([4]; 0.016 µM): 0.401
viability ([4]; 0.08 µM): 0.335
viability ([4]; 0.4 µM): 0.299
viability ([4]; 2 µM): 0.304
viability ([4]; 10 µM): 0.287
viability ([5]; 0.024 µM): 1.17
viability ([5]; 0.12 µM): 1.18
viability ([5]; 0.6 µM): 0.965
viability ([5]; 3 µM): 0.467
viability ([5]; 15 µM): 0.083
viability ([6]; 0.024 µM): 0.816
viability ([6]; 0.12 µM): 0.82
viability ([6]; 0.6 µM): 0.826
viability ([6]; 3 µM): 0.831
viability ([6]; 15 µM): 0.843
viability ([7]; 0.016 µM): 1.13
viability ([7]; 0.08 µM): 1.13
viability ([7]; 0.4 µM): 1.19
viability ([7]; 2 µM): 1.32
viability ([7]; 10 µM): 1.18
viability ([8]; 0.024 µM): 0.605
viability ([8]; 0.12 µM): 0.463
viability ([8]; 0.6 µM): 0.239
viability ([8]; 3 µM): 0.098
viability ([8]; 15 µM): 0.0587
viability ([9]; 0.0016 µM): 0.729
viability ([9]; 0.008 µM): 0.612
viability ([9]; 0.04 µM): 0.594
viability ([9]; 0.2 µM): 0.626
viability ([9]; 1 µM): 0.638
viability ([10]; 0.016 µM): 1.1
viability ([10]; 2 µM): 1.07
viability ([11]; 0.024 µM): 0.346
viability ([11]; 0.12 µM): 0.198
viability ([11]; 0.6 µM): 0.217
viability ([11]; 3 µM): 0.203
viability ([11]; 15 µM): 0.196
viability ([12]; 0.008 µM): 0.891
viability ([12]; 0.04 µM): 0.922
viability ([12]; 0.2 µM): 0.629
viability ([12]; 1 µM): 0.518
viability ([12]; 5 µM): 0.269
viability ([13]; 0.024 µM): 0.906
viability ([13]; 0.12 µM): 0.808
viability ([13]; 0.6 µM): 0.859
viability ([13]; 3 µM): 0.822
viability ([13]; 15 µM): 0.436
viability ([14]; 0.00016 µM): 0.926
viability ([14]; 0.0008 µM): 0.227
viability ([14]; 0.004 µM): 0.0249
viability ([14]; 0.02 µM): 0.0235
viability ([14]; 0.1 µM): 0.0261

primary FL patient cells (S022)
viability ([1]; 0.024 µM): 1.02
viability ([1]; 0.12 µM): 0.957
viability ([1]; 0.6 µM): 0.902
viability ([1]; 3 µM): 0.951
viability ([1]; 15 µM): 0.544
viability ([2]; 0.024 µM): 0.94
viability ([2]; 0.12 µM): 0.509
viability ([2]; 0.6 µM): 0.178
viability ([2]; 3 µM): 0.182
viability ([2]; 15 µM): 0.0171
viability ([3]; 0.0008 µM): 0.862
viability ([3]; 0.004 µM): 0.874
viability ([3]; 0.02 µM): 0.965
viability ([3]; 0.1 µM): 0.884
viability ([3]; 0.5 µM): 0.903
viability ([4]; 0.016 µM): 0.479
viability ([4]; 0.08 µM): 0.448
viability ([4]; 0.4 µM): 0.377
viability ([4]; 2 µM): 0.349
viability ([4]; 10 µM): 0.255
viability ([5]; 0.024 µM): 1.04
viability ([5]; 0.12 µM): 0.971
viability ([5]; 0.6 µM): 0.71
viability ([5]; 3 µM): 0.486
viability ([5]; 15 µM): 0.109
viability ([6]; 0.024 µM): 1.22
viability ([6]; 0.12 µM): 0.977
viability ([6]; 0.6 µM): 1.2
viability ([6]; 3 µM): 0.958
viability ([6]; 15 µM): 0.915
viability ([7]; 0.016 µM): 1.01
viability ([7]; 0.08 µM): 1.04
viability ([7]; 0.4 µM): 1.01
viability ([7]; 2 µM): 1.21
viability ([7]; 10 µM): 0.998
viability ([8]; 0.024 µM): 0.921
viability ([8]; 0.12 µM): 0.849
viability ([8]; 0.6 µM): 0.939
viability ([8]; 3 µM): 0.84
viability ([8]; 15 µM): 0.204
viability ([9]; 0.0016 µM): 1.05
viability ([9]; 0.008 µM): 1.02
viability ([9]; 0.04 µM): 1.06
viability ([9]; 0.2 µM): 0.985
viability ([9]; 1 µM): 1.13
viability ([10]; 0.08 µM): 1.06
viability ([10]; 0.4 µM): 1.05
viability ([10]; 2 µM): 0.946
viability ([10]; 10 µM): 0.909
viability ([11]; 0.024 µM): 0.814
viability ([11]; 0.12 µM): 0.827
viability ([11]; 0.6 µM): 0.55
viability ([11]; 3 µM): 0.447
viability ([11]; 15 µM): 0.333
viability ([12]; 0.008 µM): 1.02
viability ([12]; 0.04 µM): 0.951
viability ([12]; 0.2 µM): 1.02
viability ([12]; 1 µM): 0.919
viability ([12]; 5 µM): 0.865
viability ([13]; 0.024 µM): 0.996
viability ([13]; 0.12 µM): 0.882
viability ([13]; 0.6 µM): 0.949
viability ([13]; 3 µM): 0.807
viability ([13]; 15 µM): 0.814
viability ([14]; 0.00016 µM): 0.875
viability ([14]; 0.0008 µM): 0.117
viability ([14]; 0.004 µM): 0.0482
viability ([14]; 0.02 µM): 0.0455
viability ([14]; 0.1 µM): 0.0491
